One may read the half-life as the time needed for the level to fall by half in the phase considered. Read a low half-life as rapid decline. In general, pKa refers to the negative logarithm of the acid dissociation constant. A high value points to a group that holds its proton tightly.

Here are results for four compounds from ChEMBL document CHEMBL3272260, “Metabolic and photochemical hydroxylation of 5-nitro-2-furancarboxaldehyde derivatives” (J Med Chem, 1976).

Series [1] in a line: Half life of the compound under in-vacuo condition. The class given is physicochemical.
A short description of series [2]: Half life of the compound under atmospheric pressure condition. In kind it is physicochemical.
Series [3] is described as follows: Drug metabolism in rat urine treated with nitrofurantoin at 100 mg/kg, po measured up to 6 hrs by UV-spectroscopic analysis. On the set-up: dose 100 mg/kg, route oral. The class given is ADME, organism-based. Particulars: in vivo.
The nature of series [4]: Drug metabolism in rat urine treated with nitrofurantoin at 100 mg/kg, po measured up to 6 hrs by NMR-spectroscopic analysis. In kind it is ADME, organism-based. On the set-up: dose 100 mg/kg, route oral. Particulars: in vivo.
Series [5] in a line: Chemical stability of the compound. In kind it is physicochemical.
Series [6] is described as follows: Drug metabolism in rat urine treated with nitrofurantoin at 100 mg/kg, po measured up to 6 hrs by IR-spectroscopic analysis. Particulars: in vivo. Further details: dose 100 mg/kg, route oral. The class given is ADME, organism-based.
Series [7] is described as follows: Half life of the compound in 0.1% aqueous solution. In kind it is physicochemical.
Series [8] can be described thus: Dissociation constant, pKa of the compound by potentiometric titration analysis. The class given is physicochemical.

For `O.O=C1OCCN1/N=C/c1cc(O)c([N+](=O)[O-])o1`, the figures for the half-life in series [1] and in series [2] were > 26 days and 5 days, respectively.
As for `O.O=C1CN(/N=C/C2=CC(=O)C(=[N+]([O-])[O-])O2)C(=O)N1.[K+]`, the Drug metabolism entry in series [3], in series [4] and in series [6] was “metabolite_detected” each time. For the same compound, in series [5], the Stability entry was “Stable”.
As for `O=C1C=C(/C=N/N2CCOC2=O)OC1=[N+]([O-])[O-].[K+]`, the Stability result in series [5] was “Stable”.
Take `O.O.O=C1OCCN1/N=C/c1cc(O)c([N+](=O)[O-])o1`: the half-life at 0.1 % in series [7] was 2880 min. The compound further showed a pKa in series [8] of 2.7.
